Data reported in patent publication US7276576B1, “Mammalian ICYP (iodocyanopindolol) receptor and its applications” (Dainippon Sumitomo Pharma Co., Ltd., priority 1996, dated 2007).
Several values for one entry are separate records, joined by “and”; a condition that tells them apart may be missing. Equal entries are not always repeated. Structures can show the parent of a compound that is named as a salt. Where two headings read alike, the source gives them in different places.

Experiments:
[1] = test system: rat white adipocytes; assay: Lipolysis in rat white adipocytes; type: cell-based; settings: for IA, rat white adipocyte lipolysis / EC50 / Slope of Schild plot for cyanopindolol, rat white adipocytes / pA2 for cyanopindolol, rat white adipocytes: 10 μM phentolamine and 1 μM propranolol; for IA, rat white adipocyte lipolysis: relative to isoproterenol; for IA, rat white adipocyte lipolysis / EC50: mean ± SEM; for EC50: Rattus norvegicus, Adipocyte, read-out: pD2, rat white adipocyte lipolysis (converted)
Experimental: White adipocytes were isolated from epididymal fat pads of male Wistar rats (190-230 g) and lipolysis was determined according to the previous report (Sugasawa T. et al. cited above). The cells were preincubated for 5 min at 37° C. in the presence of 30 μM ascorbic acid, 10 μM phentolamine and 1 μM propranolol.
Agonists were then applied and incubated for 90 min. In the case of testing the effect of cyanopindolol, it was added 5 min before the addition of agonist.
(§1) Agonist concentration-ratios (CR) were determined from the EC50 values of the concentration-response curves of agonists with or without cyanopindolol, according to the method of Arunlakshana et al., 1959.
(§2) The EC50 values were calculated using the computer program, InPlot™.

[2] = biological target: T1, [125I]-ICYP specific binding site (SMBP, SM-11044 binding protein) in rat colon smooth muscle membranes (Rattus norvegicus, UniProt A0A8I6A822); assay: [125I]-ICYP saturation and competition binding to rat colon membranes (Example 2)
T1 construct: Membranes from colon smooth muscles were prepared as essentially described by Ek et al., 1986; from tissue
T1 sequence (A0A8I6A822 27-587): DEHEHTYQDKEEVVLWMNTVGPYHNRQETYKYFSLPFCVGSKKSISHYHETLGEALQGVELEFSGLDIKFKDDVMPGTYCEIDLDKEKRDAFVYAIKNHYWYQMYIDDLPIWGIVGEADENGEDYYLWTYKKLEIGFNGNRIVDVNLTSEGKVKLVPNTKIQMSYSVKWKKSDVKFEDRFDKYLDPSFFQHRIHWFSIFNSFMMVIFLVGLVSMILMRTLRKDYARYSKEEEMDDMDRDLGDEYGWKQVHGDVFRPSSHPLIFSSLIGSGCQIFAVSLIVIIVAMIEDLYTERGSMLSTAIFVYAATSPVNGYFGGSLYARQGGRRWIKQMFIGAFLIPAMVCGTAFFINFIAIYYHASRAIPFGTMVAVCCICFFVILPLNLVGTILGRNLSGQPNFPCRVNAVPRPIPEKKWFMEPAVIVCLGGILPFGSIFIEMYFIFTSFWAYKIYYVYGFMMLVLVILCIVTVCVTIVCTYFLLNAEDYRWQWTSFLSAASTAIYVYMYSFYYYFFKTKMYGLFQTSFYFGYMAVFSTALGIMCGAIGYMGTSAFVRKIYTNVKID
Experimental: Incubations were carried out at 37° C. for 30 min in a shaking water-bath incubator and terminated by addition of 4 ml of ice-cold Tris-saline followed by rapid filtration under vacuum on Whatman GF/B filter presoaked in Tris-saline containing 0.1% polyethyleneimine (pH 7.4). The filters were washed three times with 4 ml of ice-cold Tris-saline, transferred to plastic tubes and counted in a γ-counter.
Hill coefficient was calculated by linear regression using saturation experiment data. Pseudo-Hill coefficient and IC50 were determined by the computer program, InPlot™ (GraphPad Software, CA, USA).

[3] = test system: guinea pig ileum; assay: Guinea pig ileum relaxation of KCl-induced tonus; settings: compared with rat white adipocyte lipolysis
[4] = test system: [125I]-ICYP specific binding site in rat skeletal muscle membranes; assay: [125I]-ICYP binding to rat skeletal muscle membranes; settings: 1 nM [125I]-ICYP; 10 μM 5-HT, 10 μM phentolamine and 20 μM propranolol
Experimental: Membranes from the colon smooth muscle and from skeletal muscle were prepared from male Wistar rats (300-360 g) as essentially mentioned in example 1.
Saturation binding studies were performed in a final volume of 200 μl of Tris-saline containing 50 μg membrane proteins and different concentrations ([…]) of [^125I]-ICYP, supplemented with 10 μM serotonine (5-HT), 10 μM phentolamine, 20 μM propranolol and 1.1 mM ascorbic acid (pH 7.4), to block possible 5-HT receptors, ARs and oxidation of catecholamines, respectively. The [^125I]-ICYP was used after removing methyl alcohol by compressed air to avoid the influence of the solvent. […] The filters were washed three times with 4 ml of ice-cold Tris-saline, transferred to plastic tubes and counted in a γ-counter.
Competition assays were performed against 1 nM [^125I]-ICYP. Non-specific binding was determined in the presence of 100 μM SM-11044. The inhibition constant, Ki, of a ligand was calculated using the equation described by Cheng and Prusoff (Biochem. Pharmacol., 1973, 22, 3099-3108). Hill coefficient was calculated by linear regression using saturation experiment data. Pseudo-Hill coefficient and IC50 were determined by the computer program, InPlot™ (GraphPad Software, CA, USA).

[5] = test system: rat colon smooth muscle segment; assay: Relaxation of KCl-induced tonus in rat colon segment (organ bath); settings: for IA, rat colon relaxation / EC50 / Slope of Schild plot for cyanopindolol, rat colon / pA2 for cyanopindolol, rat colon: 10 μM phentolamine and 1 μM propranolol; for IA, rat colon relaxation: relative to isoproterenol; for IA, rat colon relaxation / EC50: mean ± SEM; for EC50: Rattus norvegicus, relaxation of KCl (100 mM)-induced tonus, read-out: pD2, rat colon relaxation (converted)
Experimental: Rat colon segment (2 cm) was suspended in organ bath containing 10 ml modified-Tyrode solution (Sugasawa T. et al. Eur. J. Pharmacol., 1992, 216, 207-215). The Tyrode solution contained 0.5 μM atropine, 0.5 μM desmethylimipramine, 30 μM hydrocortisone, 30 μM ascorbic acid, 10 μM phentolamine and 1 μM propranolol throughout study, in order to inhibit spontaneous contraction, neuronal and extra-neuronal uptake of norepinephrine, oxidation of catecholamines, possible α, β1- and β2-AR effects, respectively.
The relaxant action of agonists was determined by measuring relaxation of KCl (100 mM)-induced tonus evoked by cumulative addition of the agonists as described previously (Sugasawa T. et al. cited above). In the case of testing the effect of cyanopindolol, it was added 5-10 min before the addition of agonist.
as §1, §2

[6] = test system: guinea pig eosinophil; assay: Leukotriene B4 induced guinea pig eosinophil chemotaxis; type: cell-based
[7] = test system: atypical β-AR in rat colon; settings: under blockade of β1- and β2-AR effects; McLaughlin, MacDonald et al.; cited from earlier work
[8] = biological target: rat SM-11044 binding protein (Ro-SMBP) of rat colon smooth muscle membranes (rat) (UniProt D3ZUD8); assay: WGA-sepharose chromatography, elution with N-acetyl-D-glucosamine
[9] = 1 nM [125I]-ICYP, 10 μM 5-HT, 10 μM phentolamine and 20 μM propranolol, read-out: Ki on [125I]-ICYP specific binding to rat colon membranes
[10] = agonist (−)-isoproterenol, listed as Cyanopindolol
[11] = agonist (−)-isoproterenol, listed as cyanopindolol
[12] = agonist SM-11044, listed as Cyanopindolol
[13] = agonist SM-11044, listed as cyanopindolol
[14] = up to the concentration of 10 μM

O=C([C@@H](NCCCc1ccc(F)cc1)[C@H](O)c1ccc(O)c(O)c1)N1CCCC1 [SM-11044, (L)-threo-3-(3,4-dihydroxyphenyl)-N-[3-(4-fluorophenyl)propyl]serine pyrrolidine amide hydrobromide]
IA, rat white adipocyte lipolysis [1]: 0.86 ± 0.054
EC50 [1]: 1.1 µM
Pseudo-Hill coefficient ([2]; 1 nM [125I]-ICYP, 10 μM 5-HT, 10 μM phentolamine and 20 μM propranolol, hydrobromide): 1.00 ± 0.12
Ki [2, 9]: 1.8 ± 0.3 µM
Relaxation of KCl-induced tonus in guinea pig ileum (in words) [3]: more efficiently than rat white adipocyte lipolysis
Displacement of [125I]-ICYP specific binding to skeletal muscle membranes [4]: displaced the binding in a concentration-dependent manner
IA, rat colon relaxation [5]: 1.48 ± 0.166
EC50 [5]: 0.0513 µM
Inhibition of leukotriene B4 induced guinea pig eosinophil chemotaxis [6]: inhibiting

CC(C)NC[C@H](O)c1ccc(O)c(O)c1 (single isomer, unassigned) [(−)-isoproterenol, isoproterenol]
IA, rat white adipocyte lipolysis [1]: 1.00 ± 0.037
EC50 [1]: 1.38 µM
Ki [2, 9]: > 1000 µM
Displacement of [125I]-ICYP specific binding ([2]; up to the concentration of 1 mM): not displaced
Displacement of [125I]-ICYP specific binding to skeletal muscle membranes [4]: not displaced by isoproterenol up to concentrations of 10^−4 M
IA, rat colon relaxation [5]: 1.00 ± 0.063
EC50 [5]: 0.229 µM
Inhibition of leukotriene B4 induced guinea pig eosinophil chemotaxis [6]: no such effect

CC(C)(C)NCC(O)COc1cccc2[nH]c(C#N)cc12 (racemic) [(±)-cyanopindolol, cyanopindolol]
Slope of Schild plot for cyanopindolol, rat white adipocytes [1, 10]: 1.08
pA2 for cyanopindolol, rat white adipocytes [1, 10]: 7.44
Slope of Schild plot for cyanopindolol, rat white adipocytes [1, 11]: 1.08 ± 0.10
pA2 for cyanopindolol, rat white adipocytes [1, 11]: 7.44 ± 0.61
Slope of Schild plot for cyanopindolol, rat white adipocytes [1, 12]: 0.96
pA2 for cyanopindolol, rat white adipocytes [1, 12]: 7.32
Slope of Schild plot for cyanopindolol, rat white adipocytes [1, 13]: 0.96 ± 0.21
pA2 for cyanopindolol, rat white adipocytes [1, 13]: 7.32 ± 1.51
Stimulation of lipolysis by the compound itself [1, 14]: did not stimulate lipolysis
Ki [2]: 0.11 µM
Pseudo-Hill coefficient ([2]; 1 nM [125I]-ICYP, 10 μM 5-HT, 10 μM phentolamine and 20 μM propranolol): 1.01 ± 0.14
Slope of Schild plot for cyanopindolol, rat colon [5, 10]: 1.03
pA2 for cyanopindolol, rat colon [5, 10]: 7.65
Slope of Schild plot for cyanopindolol, rat colon [5, 11]: 1.03 ± 0.08
pA2 for cyanopindolol, rat colon [5, 11]: 7.65 ± 0.48
Slope of Schild plot for cyanopindolol, rat colon [5, 12]: 0.78
pA2 for cyanopindolol, rat colon [5, 12]: 8.31
Slope of Schild plot for cyanopindolol, rat colon [5, 13]: 0.78 and 0.78 ± 0.11
pA2 for cyanopindolol, rat colon [5, 13]: 8.31 and 8.31 ± 0.88
Effect of the compound itself on the degree of tonus induced by KCl [5, 14]: had no effect
pA2 against propranolol-resistant responses of isoproterenol in rat colon [7]: 7.12

B1: Wheat Germ Agglutinine (WGA)-sepharose 6 MB (protein, UniProt P10968 27-197, looked up)
chain: QRCGEQGSNMECPNNLCCSQYGYCGMGGDYCGKGCQNGACWTSKRCGSQAGGATCTNNQCCSQYGYCGFGAEYCGAGCQGGPCRADIKCGSQAGGKLCPNNLCCSQWGFCGLGSEFCGGGCQSGACSTDKPCGKDAGGRVCTNNYCCSKWGSCGIGPGYCGAGCQSGGCDG
percent of the radiolabeled material eluted by the specific sugar [8]: 2.3%
